Earlier results in publication PMC6069857, “Effects of novel HDAC inhibitors on urothelial carcinoma cells” (Clinical Epigenetics, 2018).

Biological target: HDAC2 (Homo sapiens, UniProt Q92769)
Design: purchased Reaction Biology Corp. (Malvern, PA)
Settings: previously reported; given for HDAC1/2 together; cited from earlier work

Sequence of HDAC2 (Q92769 whole entry): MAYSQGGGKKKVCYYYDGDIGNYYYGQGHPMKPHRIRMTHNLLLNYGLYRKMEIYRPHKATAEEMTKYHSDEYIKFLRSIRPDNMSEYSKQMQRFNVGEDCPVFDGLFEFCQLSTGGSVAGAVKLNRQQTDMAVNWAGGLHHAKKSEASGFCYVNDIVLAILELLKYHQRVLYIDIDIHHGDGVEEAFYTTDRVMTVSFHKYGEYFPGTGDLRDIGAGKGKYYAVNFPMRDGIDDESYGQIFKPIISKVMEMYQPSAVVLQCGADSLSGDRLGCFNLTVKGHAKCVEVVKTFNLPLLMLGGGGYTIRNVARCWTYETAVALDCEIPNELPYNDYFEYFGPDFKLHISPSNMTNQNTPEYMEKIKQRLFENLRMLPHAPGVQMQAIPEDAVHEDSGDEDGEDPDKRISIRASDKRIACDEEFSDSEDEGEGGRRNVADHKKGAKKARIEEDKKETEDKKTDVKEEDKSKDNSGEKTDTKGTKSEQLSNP

**Q.** Which “in vitro IC50 HDAC2” value does the source give for `Cc1cc(C)cc(C(=O)NOCCCCCC(=O)NO)c1` [19i] here?
**A.** Its value is “sub-micromolar”.
